# Like-named read-outs stand apart in the source and are kept apart here.
# How the values were obtained:
# [1] = system: carrageenin-induced inflammation (hind paw oedema); assay: Carrageenin oedema test for anti-inflammatory activity; format: in vivo, Male Wistar rats; settings: po, read-out: Anti-inflammatory activity, ID50
# Procedure: Male Wistar rats weighing 120-150 g were fasted overnight and then received a test compound per os as an aqueous tragacanth suspension. 30 minutes later, inflammation was induced by the subcutaneous injection of 0.05 ml of a 1% w/v carrageenin suspension into the plantar tissue of a hind paw of each rat [Winter et al., Proc. Soc. […] The anti-oedema activity was measured volumetrically, by assessing the response, as calculated from the following equation: Response=(V-Vo)/Vo where Vo and V represent, respectively, the paw volume immediately before and 3 hours after the carrageenin injection.
# [2] = system: pressure-induced pain threshold; assay: Pain test for analgesic activity (modified Randall and Selitto, Brewers' yeast-inflamed paw); format: in vivo, Male Wistar-Imamichi rats; settings: read-out: Analgesic activity, ED50
# Procedure: This test was conducted according to a modification of the method reported by L. O. Randall and J. J. Selitto in Arch. Int.
# Male Wistar-Imamichi rats of 4 weeks of age and weighing 60-90 g were injected with 0.1 ml of a 20% by weight suspension of Brewers' yeast in the right hind paw. […] Each of these was given orally a test compound as an aqueous tragacanth suspension. 1 and 2 hours after administration of the test compound, the pain threshold was determined by observing pain responses (such as struggling or squeaking) when the inflamed or normal paw was subjected to pressure by a machine (Ugo-Basile).
# [3] = system: IgM antibody-producing cells in the spleen; assay: Test for immuno-regulatory activity (Cunningham's method, IgM antibody production to sheep erythrocytes); format: in vivo, female mice of the BALB/c strain; settings: mouse, oral, dose from 1 to 10 mg per kg, spleen after 5 days
# Procedure: The immuno-regulatory activity of (±)-2-[4-(cis-2-hydroxycyclohexylmethyl)phenyl]propionic acid was tested by Cunningham's method [A. J. Cunningham and A. Szenberg, Immunology 14, 599 (1968)]. The test compound was administered orally to female mice of the BALB/c strain and simultaneously sheep erythrocytes were administered intraperitonially, in order to sensitise the animal to these erythrocytes as an antigen. After 5 days, the spleen of the experimental animal was extracted and the number of IgM antibody-producingcells in the spleen cells was calculated.
# [4] = rat, per os, paw volume 3 hours after carrageenin, dose inhibiting the response by 50%
# [5] = rat, oral, pain threshold 1 and 2 hours after administration, Litchfield and Wilcoxon
Compound,"ED50 ([1]; Rattus norvegicus, 3 h) [mg/kg]","ED50 ([2]; Rattus norvegicus, po) [mg/kg]","ED50 [1, 4] [mg/kg]","ED50 [2, 5] [mg/kg]",percent inhibition of antibody production [3] [%]
"COc1ccc2c(c1)c(CC(=O)O)c(C)n2C(=O)c1ccc(Cl)cc1 [Compound 3, Indomethacin, reference compound]",2.2,1.6,–,–,–
"CC(C(=O)O)c1ccc(C[C@@H]2CCCC[C@@H]2O)cc1 (mixture of isomers) [Compound 1, (±)-2-[4-(cis-2-hydroxycyclohexylmethyl)phenyl]propionic acid]",–,–,3.3,0.86,≥ 50
"CC(C(=O)O)c1ccc(C[C@@H]2CCCC[C@H]2O)cc1 (mixture of isomers) [Compound 2, (±)-2-[4-(trans-2-hydroxycyclohexylmethyl)phenyl]propionic acid]",–,–,0.96,0.76,–

# From patent publication US4622421A, “Phenylalkanoic acid derivatives and their use” (Sankyo Company Limited, priority 1983, dated 1986)
